# Source: patent US20130143929A1, “FUNGICIDAL IMIDAZOLES” (EI DU PONT DE NEMOURS AND COMPANY, priority 2010, published 2013)
# Marks after values point to notes of the source that are not given here.
# Assays:
# Format in all cases: in vivo
# [1] = test system: Puccinia recondite f. sp. tritici (the causal agent of wheat leaf rust); experiment: Test A: wheat leaf rust, preventive spray on wheat seedlings, visual disease rating; settings: wheat leaf rust, preventive spray on wheat seedlings
# How it was run: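 This was a preventive test: Puccinia recondite f. sp. tritici inoculum was applied one day after compound spray to run-off. Test suspensions were made in 50/50 acetone/water with 250 ppm surfactant, at 200 ppm (800 g/ha equivalent) or 40 ppm. Visual ratings of % disease control relative to controls were made after 24 h of saturated humidity and 7 growth-chamber days, all at 20° C.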
# [2] = test system: Septoria tritici (the causal agent of wheat leaf blotch); experiment: Test B: wheat leaf blotch, preventive spray on wheat seedlings, visual disease rating; settings: wheat leaf blotch, preventive spray on wheat seedlings
# How it was run: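 Preventive test: Septoria tritici spores applied one day after run-off spraying of seedlings (200 ppm equals 800 g/ha; some tests 40 ppm). After 48 h at 24 °C saturated atmosphere and 19 days at 20 °C, disease scored visually as % control relative to untreated plants.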
# [3] = test system: Botrytis cinerea (the causal agent of tomato Botrytis); experiment: Test C: tomato Botrytis, preventive spray on tomato seedlings, visual disease rating; settings: tomato Botrytis, preventive spray on tomato seedlings
# How it was run: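 Preventive test: B. cinerea spore inoculation one day after tomato seedlings were sprayed to run-off with compound suspended in 50/50 acetone–water plus 250 ppm surfactant. Plants held 48 h at 20° C in saturated air, then 3 days at 24° C; visual ratings scored 100 (full control) to 0 versus controls; some entries used 40 ppm.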
# [4] = test system: Blumeria graminis f. sp. tritici (also known as Erysiphe graminis f. sp. tritici, the causal agent of wheat powdery mildew); experiment: Test D: wheat powdery mildew, preventive spray on wheat seedlings, visual disease rating; settings: wheat powdery mildew, preventive spray on wheat seedlings
# How it was run: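 Preventive test: seedlings sprayed to run-off and inoculated with powdery mildew spores one day later. Suspensions were made in 50/50 acetone/water with 250 ppm Trem 014 surfactant (200 ppm equals 800 g/ha). Visual ratings after 8 days at 20 °C give percent disease control versus controls.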
# [5] = asterisk: 40 ppm test suspension
# [6] = no asterisk (standard test suspension concentration, not 40 ppm)
SMILES,"Test A rating (100 = 100% disease control, 0 = no disease control relative to the controls) [1, 5]","Test B rating (100 = 100% disease control, 0 = no disease control relative to the controls) [2, 5]","Test C rating (100 = 100% disease control, 0 = no disease control relative to the controls) [3, 5]","Test D rating (100 = 100% disease control, 0 = no disease control relative to the controls) [4, 5]","Test A rating (100 = 100% disease control, 0 = no disease control relative to the controls) [1, 6]","Test B rating (100 = 100% disease control, 0 = no disease control relative to the controls) [2, 6]","Test C rating (100 = 100% disease control, 0 = no disease control relative to the controls) [3, 6]","Test D rating (100 = 100% disease control, 0 = no disease control relative to the controls) [4, 6]"
OC(c1ccc(F)cc1F)c1c(Br)ncn1-c1c(F)cccc1F (stereo not drawn) [compound 96],68* %,100* %,40* %,0* %,–,–,–,–
Cc1ncc(C(O)c2ccc(F)cc2F)n1-c1c(F)cccc1F (stereo not drawn) [compound 97],95* %,100* %,0* %,0* %,–,–,–,–
Cc1nc(Cl)c(C(O)c2ccc(F)cc2Cl)n1-c1c(F)cccc1F (stereo not drawn) [compound 98],100* %,100* %,100* %,99* %,–,–,–,–
Cc1nc(Br)c(C(O)c2ccc(F)cc2Cl)n1-c1c(F)cccc1F (stereo not drawn) [compound 99],100* %,100* %,99* %,98* %,–,–,–,–
Cc1nc(Cl)c(C(O)c2c(F)cc(F)cc2F)n1-c1c(F)cccc1F (stereo not drawn) [compound 100],100* %,100* %,97* %,82* %,–,–,–,–
Cc1cc(F)ccc1C(O)c1c(C)nc(Cl)n1-c1ccc(F)cc1F (stereo not drawn) [compound 104],–,–,–,–,100%,100%,99%,97%
Cc1nc(Cl)c(C(O)c2c(F)cccc2F)n1-c1c(F)cccc1F (stereo not drawn) [compound 105],99* %,100* %,85* %,64* %,–,–,–,–
Cc1nc(Br)c(C(O)c2c(F)cccc2F)n1-c1c(F)cccc1F (stereo not drawn) [compound 106],99* %,100* %,91* %,43* %,–,–,–,–
OC(c1ccc(F)cc1F)c1c(Br)nc(Br)n1-c1c(F)cc(F)cc1Cl (stereo not drawn) [compound 107],–,–,–,–,100%,100%,100%,94%
OC(c1ccc(F)cc1F)c1c(Br)nc(Cl)n1-c1c(F)cc(F)cc1Cl (stereo not drawn) [compound 108],100* %,100* %,67* %,99* %,–,–,–,–
Cc1cc(F)ccc1C(O)c1cnc(C)n1-c1c(F)cc(Cl)cc1F (stereo not drawn) [compound 109],99* %,94* %,0* %,0* %,–,–,–,–
Cc1cc(F)ccc1C(O)c1c(Br)nc(C)n1-c1c(F)cc(Cl)cc1F (stereo not drawn) [compound 110],96* %,100* %,0* %,0* %,–,–,–,–
Cc1cc(F)ccc1C(O)c1c(Cl)nc(C)n1-c1c(F)cc(Cl)cc1F (stereo not drawn) [compound 111],98* %,100* %,0* %,0* %,–,–,–,–
Cc1ncc(C(O)c2ccc(Cl)cc2Cl)n1-c1c(F)cc(Cl)cc1F (stereo not drawn) [compound 112],74* %,100* %,0* %,0* %,–,–,–,–
Cc1nc(Br)c(C(O)c2ccc(Cl)cc2Cl)n1-c1c(F)cc(Cl)cc1F (stereo not drawn) [compound 113],95* %,100* %,0* %,0* %,–,–,–,–
Cc1nc(Cl)c(C(O)c2ccc(Cl)cc2Cl)n1-c1c(F)cc(Cl)cc1F (stereo not drawn) [compound 114],99* %,100* %,0* %,0* %,–,–,–,–
Cc1ncc(C(O)c2ccc(F)cc2Cl)n1-c1c(F)cc(Cl)cc1F (stereo not drawn) [compound 115],100* %,96* %,97* %,0* %,–,–,–,–
Cc1nc(Br)c(C(O)c2ccc(F)cc2Cl)n1-c1c(F)cc(Cl)cc1F (stereo not drawn) [compound 116],99* %,100* %,0* %,0* %,–,–,–,–
Cc1nc(Cl)c(C(O)c2ccc(F)cc2Cl)n1-c1c(F)cc(Cl)cc1F (stereo not drawn) [compound 117],99* %,100* %,0* %,0* %,–,–,–,–
OC(c1ccc(F)cc1F)c1c(Cl)ncn1-c1c(F)cc(F)cc1Cl (stereo not drawn) [compound 118],100* %,100* %,91* %,–,–,–,–,48%
OC(c1ccc(F)cc1F)c1c(Br)ncn1-c1c(F)cc(Cl)cc1F (stereo not drawn) [compound 119],98* %,100* %,97* %,0* %,–,–,–,–
